What all share (assay): drug sensitivity score (DSS), CellTox Green (DSS (AUC-based score)); higher = stronger drug effect (viability inhibition or cytotoxicity); extreme values may be limits of the assay
Settings in all cases: incubation time: 72 h

In one test the test system is HCC1143. The gist of the method: (§1)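 Breast cancer cell lines, seeded as 20 µl suspension, were incubated 72 h with compound in 384-well plates at 5 concentrations in 10-fold steps over a 10,000-fold range set for each compound. Fluorescence from CellTox Green was read at 485/520 nm before CellTiter-Glo luminescence, which was read after 10 min at room temperature. Every plate was normalised to 0.1 % DMSO and a positive kill control, and the drug sensitivity score was taken from the area under the fitted dose-response curve.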

For a further test, the system named is CAL-51. The method, boiled down:
as §1

Another test relates to BT-474. The gist of the method:
as §1

A further test deals with HDQ-P1. The method, boiled down:
as §1

The test system of the next test is MFM-223. The method, boiled down:
as §1

In a further test the test system is MDA-MB-453. The method, boiled down:
as §1

In a further test the test system is HCC1599. The method, boiled down: as §1
For the next test, the system named is MDA-MB-231. The method, boiled down: as §1
For a further test, the system named is MDA-MB-436. The gist of the method: as §1

The text below walks through data of the supplement of paper PMC4862054.

For `O=C(CCCCCCC(=O)Nc1ccc([C@H]2O[C@@H](CSc3nc(-c4ccccc4)c(-c4ccccc4)o3)C[C@@H](c3ccc(CO)cc3)O2)cc1)NO` [Tubacin], the drug sensitivity score amounted to 2.07 in the test with HCC1143; 3.54 in the test with CAL-51; 1.77 in the test with BT-474; 0 with HDQ-P1; 0 in the test on MFM-223; 1.38 in the test on MDA-MB-453. Also, the figures for the drug sensitivity score in the test with HCC1599, with MDA-MB-231 and with MDA-MB-436 were 0, 7.97 and 0, respectively.
Turning to `CN[C@@H]1C[C@H]2O[C@@](C)([C@@H]1OC)n1c3ccccc3c3c4c(c5c6ccccc6n2c5c31)C(=O)N[C@H]4O` [UCN-01], the drug sensitivity score was 8.74 with HCC1143; 17 in the test with CAL-51; 7.59 in the test on BT-474; 14.7 in the test on HDQ-P1; 6.67 in the test on MFM-223; 1.04 in the test with MDA-MB-453. Moreover, the drug sensitivity score in the test with HCC1599 was found to be 0; in the test on MDA-MB-231, 19; in the test on MDA-MB-436 it was 0.
In the case of `Clc1ccc(Nc2nnc(Cc3ccncc3)c3ccccc23)cc1` [Vatalanib], the drug sensitivity score in the test on HCC1143, in the test with CAL-51, in the test with BT-474, with HDQ-P1, in the test on MFM-223 and in the test with MDA-MB-453 was 0 each time. In addition, the drug sensitivity score in the test with HCC1599, in the test on MDA-MB-231 and in the test with MDA-MB-436 was 0 each time.
As to `CCC1=C[C@@H]2CN(C1)Cc1c([nH]c3ccccc13)[C@@](C(=O)OC)(c1cc3c(cc1OC)N(C)[C@H]1[C@@](O)(C(=O)OC)[C@H](OC(C)=O)[C@]4(CC)C=CCN5CC[C@]31[C@@H]54)C2` [Vinorelbine], the drug sensitivity score in the test with HCC1143 is 0; in the test with CAL-51, 24.9; in the test on BT-474, 10; with HDQ-P1 it was 0; in the test with MFM-223 it was 12.7; in the test on MDA-MB-453, 0. Also, the drug sensitivity score with HCC1599 stood at 2.9; in the test on MDA-MB-231, 18.1; with MDA-MB-436, 3.27.
With `Oc1nc(-c2ccc(C(F)(F)F)cc2)nc2c1CSCC2` [XAV-939], the drug sensitivity score in the test on HCC1143 worked out at 0; in the test with CAL-51, 0; with BT-474, 0; with HDQ-P1, 3.77; in the test with MFM-223, 0; in the test on MDA-MB-453, 0. In addition, the drug sensitivity score in the test with HCC1599, in the test on MDA-MB-231 and in the test on MDA-MB-436 was 0 each time.
